# Measured values from ChEMBL document CHEMBL1201862, “PubChem BioAssay data set” (2004).
#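 Protocol summary: plate cells (96-well), add compound at 5 concentrations, incubate 48 h, interpolate endpoints linearly. Abbreviation: GI50, concentration required for 50% inhibition of growth.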 Active and inactive are the calls of the source. Rule as the data show it: active = GI50 up to about 1.1 µM and inactive = higher.
# Tests used:
# Assay in all cases: NCI-60 cell line screen, 48 h
# [1] = tested on: NCI-H460
# [2] = tested on: OVCAR-8
# [3] = tested on: BT-549
# [4] = tested on: SF-539
# [5] = tested on: SW-620
# [6] = tested on: COLO 205
# [7] = tested on: MOLT-4
# [8] = tested on: ACHN
# [9] = tested on: SF-268
# [10] = tested on: 786-0
# [11] = tested on: HOP-92
# [12] = tested on: A498
# [13] = tested on: SF-295
# [14] = tested on: SN12C
# [15] = tested on: Malme-3M
# [16] = tested on: CAKI-1
# [17] = tested on: SR
# [18] = tested on: SK-OV-3
# [19] = tested on: DU-145
# [20] = tested on: HCT-15
# [21] = tested on: SK-MEL-28
# [22] = tested on: HL-60
# [23] = tested on: SK-MEL-2
# [24] = tested on: SK-MEL-5
# [25] = tested on: MDA-N
# [26] = tested on: LOX IMVI
# [27] = tested on: KM12
# [28] = tested on: OVCAR-3
# [29] = tested on: K562
# [30] = tested on: HT-29
# [31] = tested on: Hs-578T
# [32] = tested on: TK-10
# [33] = tested on: SNB-75
# [34] = tested on: HCC 2998
# [35] = tested on: NCI-H522
# [36] = tested on: NCI-H226
# [37] = tested on: M14
# [38] = tested on: NCI-H23
# [39] = tested on: IGROV-1
# [40] = tested on: EKVX
# [41] = tested on: MCF7
# [42] = tested on: UO-31
# [43] = tested on: MDA-MB-231
# [44] = tested on: HCT-116
# [45] = tested on: UACC-257
# [46] = tested on: NCI/ADR-RES
# [47] = tested on: MDA-MB-435
# [48] = tested on: CCRF-CEM
# [49] = tested on: U-251
# [50] = tested on: OVCAR-4
# [51] = tested on: T47D
# [52] = tested on: HOP-62
# [53] = tested on: A549
# [54] = tested on: UACC-62
smiles,measurement,setting,value
O/N=C1\C/C(=N\O)c2c(Br)sc(Br)c21,GI50,[1],> 100 µM (inactive)
same,GI50,[2],19.2 µM (inactive)
same,GI50,[3],31.6 µM (inactive)
same,GI50,[4],38.2 µM (inactive)
same,GI50,[5],26.4 µM (inactive)
same,GI50,[6],70.8 µM (inactive)
same,GI50,[7],29.2 µM (inactive)
same,GI50,[8],> 100 µM (inactive)
same,GI50,[9],17.4 µM (inactive)
same,GI50,[10],36 µM (inactive)
same,GI50,[11],46 µM (inactive)
same,GI50,[12],58.1 µM (inactive)
same,GI50,[13],> 100 µM (inactive)
same,GI50,[14],> 100 µM (inactive)
same,GI50,[15],> 100 µM (inactive)
same,GI50,[16],19.4 µM (inactive)
same,GI50,[17],8.99 µM (inactive)
same,GI50,[18],91.8 µM (inactive)
same,GI50,[19],39.1 µM (inactive)
same,GI50,[20],17.3 µM
same,GI50,[21],24.7 µM (inactive)
same,GI50,[22],27.4 µM (inactive)
same,GI50,[23],43.4 µM (inactive)
same,GI50,[24],> 100 µM (inactive)
same,GI50,[25],78.5 µM (inactive)
same,GI50,[26],18.8 µM (inactive)
same,GI50,[27],32.6 µM (inactive)
same,GI50,[28],30.6 µM (inactive)
same,GI50,[29],37.5 µM (inactive)
same,GI50,[30],> 100 µM (inactive)
same,GI50,[31],0.216 µM (active)
same,GI50,[32],38.5 µM (inactive)
same,GI50,[33],17.3 µM (inactive)
same,GI50,[34],23.7 µM (inactive)
same,GI50,[35],17.7 µM (inactive)
same,GI50,[36],51.8 µM (inactive)
same,GI50,[37],45.6 µM (inactive)
same,GI50,[38],20.4 µM (inactive)
same,GI50,[39],30.4 µM (inactive)
same,GI50,[40],16.9 µM (inactive)
same,GI50,[41],38.3 µM (inactive)
same,GI50,[42],20.6 µM (inactive)
same,GI50,[43],77.1 µM (inactive)
same,GI50,[44],37.4 µM (inactive)
same,GI50,[45],> 100 µM (inactive)
same,GI50,[46],30.2 µM (inactive)
same,GI50,[47],41.8 µM (inactive)
same,GI50,[48],11.1 µM (inactive)
same,GI50,[49],43.2 µM (inactive)
same,GI50,[50],27.2 µM (inactive)
same,GI50,[51],31.3 µM (inactive)
same,GI50,[52],32.1 µM (inactive)
same,GI50,[53],26.2 µM (inactive)
same,GI50,[54],91.2 µM (inactive)
